Test results taken from patent US11427604B2 (Mindset Pharma Inc., priority 2020, dated 2022).

Legend:
[1] = In vivo pharmacokinetics in male Sprague-Dawley rats; parameters: species or system rat; conditions: for AUC(0-t): read-out: AUC0-tlast; for MRT inf: read-out: MRT0-inf; for half-life: read-out: Apparent t1/2 (converted)
Method: (§1) Male C57BL/6 mice (25-30 g) and male Sprague-Dawley rats (250-325 g) from Charles River Labs were acclimatized for a minimum of 5 days prior to dosing. Body weights were recorded on the day of dosing.
(§2) Animals dosed p.o. were deprived of food overnight and fed ˜2 h following dosing.
(§3) Formulations were administered intravenously (i.v.) via the tail vein or orally (p.o.) by gavage with disposable feeding needles.
(§4) Serial blood samples were collected via tail snip. Terminal blood samples were collected under isoflurane anesthesia by cardiac puncture.
(§5) All blood samples were transferred into K2EDTA tubes on wet ice and centrifuged within 5 min (3200×g for 5 min at 4° C.) to obtain plasma. Plasma was stored at −80° C. until analysis.
(§6) Mouse or rat plasma, as applicable.
(§7) AB Sciex QTRAP 4000 or 6500 MS/MS system equipped with an LC system with a binary pump, a solvent degasser, a thermostated column compartment and a multiplate autosampler. i. Analysis software: Phoenix® WinNonlin® 8.2 (Pharsight, Certara, Mountainview, Calif.) ii. Analysis methods: non-compartmental analysis, linear up/log down trapezoidal rule iii. PK parameters: C0, t1/2, AUC0-tlast, AUC0-∞, CL, VSS, MRT, tmax(po), Cmax(po), F, as appropriate

[2] = In vivo pharmacokinetics in male C57BL/6 mice; parameters: species or system mouse; conditions: for AUC(0-t): read-out: AUC0-tlast; for half-life: read-out: Apparent t1/2 (converted); for MRT inf: read-out: MRT0-inf
Method: as §1, §2, §3, §4, §5, §6, §7

[3] = Human liver microsomes stability with NADPH
Method: The objective of this study was to estimate in vitro metabolic stability of 1-45 in pooled human and male mouse liver microsomes. The concentrations of exemplary compounds in reaction systems were evaluated by LC-MS/MS for estimating the stability in pooled human and male mouse liver microsomes. The in vitro intrinsic clearances of test compounds were determined as well.
A master solution in the “Incubation Plate” containing phosphate buffer, ultra-pure H2O, MgCl2 solution and liver microsomes was made according to Table --. The mixture was pre-warmed at 37° C. water bath for 5 minutes.
40 μL of 10 mM NADPH solution was added to each well. The final concentration of NADPH was 1 mM. The negative control samples were prepared by replacing NADPH with 40 μL of ultra-pure H2O. Samples were prepared in duplicate. Negative controls were prepared in singlet.
The reaction was started with the addition of 4 μL of 200 μM test compounds or control compounds to each master solution to get the final concentration of 2 μM. This study was performed in duplicate.
Aliquots of 50 μL were taken from the reaction solution at 0, 15, 30, 45 and 60 minutes. The reaction solutions were stopped by the addition of 4 volumes of cold methanol with IS (100 nM alprazolam, 200 nM imipramine, 200 nM labetalol and 2 μM ketoprofen). Samples were centrifuged at 3,220 g for 40 minutes. Aliquot of 90 μL of the supernatant was mixed with 90 μL of ultra-pure H2O and then was used for LC-MS/MS analysis.
LC/MS analysis was performed for all samples from this study using a Shimadzu liquid chromatograph separation system equipped with degasser DGU-20A5R; solvent delivery unit LC-30AD; system controller SIL-30AC; column oven CTO-30A; CTC Analytics HTC PAL System. Mass spectrometric analysis was performed using an Triple Quad™ 5500 instrument.
All calculations were carried out using Microsoft Excel. Peak area ratios of test compound to internal standard (listed in the below table) were determined from extracted ion chromatograms.
All calculations were carried out using Microsoft Excel. Peak areas were determined from extracted ion chromatograms. The slope value, k, was determined by linear regression of the natural logarithm of the remaining percentage of the parent drug vs. incubation time curve.
Conversion of the in vitro t1/2 (min) into the in vitro intrinsic clearance (in vitro CLint, in μL/min/mg proteins) was done using the following equation (mean of duplicate determinations):
[formula] […] Results & Discussion

[4] = p.o. 3.0 mg/kg per title (dose row prints 10)
[5] = rat, plasma, iv, i.v. 0.3 mg/kg
[6] = rat, plasma, po, p.o. 3.0 mg/kg per title (dose row prints 10)
[7] = rat, plasma, sc, s.c. 0.3 mg/kg
[8] = mouse, plasma, iv, i.v. 1 mg/kg
[9] = mouse, plasma, po, p.o. 10 mg/kg

[2H]C([2H])([2H])N(C([2H])([2H])[2H])C([2H])([2H])C([2H])([2H])c1c[nH]c2cccc(O)c12 [Compound I-45, 3-(2-(bis(methyl-d3)amino)ethyl-1,1,2,2-d4)-1H-indol-4-ol]
AUC0-inf/Dose ([1]; i.v. 0.3 mg/kg): 181 ± 30.8 kg·ng·h/mL/mg | AUC(0-inf) ([1]; i.v. 0.3 mg/kg): 117 ± 11.5 ng·h/mL | Apparent t1/2 ([1]; i.v. 0.3 mg/kg): 34.6 ± 3.17 h | AUC0-inf/Dose [1, 4]: 181 ± 14.6 kg·ng·h/mL/mg | Cmax/Dose [1, 4]: 79.2 ± 24.4 kg·ng/mL/mg | clearance [1, 5]: 143 mL/min/kg | AUC(0-t) [1, 5]: 35.2 ± 3.45 ng·h/mL | MRT inf [1, 5]: 1.49 ± 0.536 h | Cmax [1, 6]: 238 ± 73.3 ng/mL | Tmax [1, 6]: 0.333 ± 0.144 h | bioavailability [1, 6]: 155 ± 12.4% | AUC(0-inf) ([1]; rat, plasma, po, p.o. 3.0 mg/kg per title (dose row prints 10), read-out: AUC0-inf): 543 ± 43.7 ng·h/mL | AUC(0-t) [1, 6]: 534 ± 38.7 ng·h/mL | half-life [1, 6]: 2.61 ± 0.795 h | MRT inf [1, 6]: 2.77 ± 0.486 h | Cmax [1, 7]: 30.2 ± 12.2 ng/mL | Tmax [1, 7]: 0.278 ± 0.21 h | bioavailability [1, 7]: 125 ± 30.4% | AUC(0-inf) ([1]; rat, plasma, sc, s.c. 0.3 mg/kg, read-out: AUC0-inf): 35.9 ± 8.71 ng·h/mL | AUC(0-t) [1, 7]: 32 ± 9.2 ng·h/mL | half-life [1, 7]: 0.647 ± 0.212 h | MRT inf [1, 7]: 0.991 ± 0.228 h | AUC0-inf/Dose ([1]; s.c. 0.3 mg/kg): 120 ± 29.0 kg·ng·h/mL/mg | Cmax/Dose ([1]; s.c. 0.3 mg/kg): 101 ± 40.7 kg·ng/mL/mg | AUC0-inf/Dose ([2]; i.v. 1 mg/kg): 181 ± 30.8 kg·ng·h/mL/mg | AUC(0-inf) [2, 8]: 181 ± 30.8 ng·h/mL | clearance [2, 8]: 94 mL/min/kg | AUC(0-t) [2, 8]: 178 ± 32.2 ng·h/mL | half-life [2, 8]: 5.32 ± 2.99 h | MRT inf [2, 8]: 1.49 ± 0.536 h | Vd ([2]; mouse, plasma, iv, i.v. 1 mg/kg, read-out: Vss): 8.34 ± 3.15 L/kg | AUC(0-inf) [2, 9]: 795 ± 121 ng·h/mL | Cmax [2, 9]: 704 ± 128 ng/mL | bioavailability [2, 9]: 44 ± 6.7% | AUC(0-t) [2, 9]: 792 ± 120 ng·h/mL | half-life [2, 9]: 4.52 ± 0.481 h | MRT inf [2, 9]: 2 ± 0.227 h | AUC0-inf/Dose ([2]; p.o. 10 mg/kg): 79.5 ± 12.1 kg·ng·h/mL/mg | Cmax/Dose ([2]; p.o. 10 mg/kg): 70.4 ± 12.8 kg·ng/mL/mg | Remaining Percentage (%) after 60 min ([3]; Human, with NADPH, 2 μM): 73.65% | half-life at 2 μM ([3]; human, microsomes): 2.27 h | microsomal CLint at 2 μM ([3]; human, microsomes): 10.2 µL/min/mg
